Experimental data published in patent US5756109A, “Skin care compositions containing geranyl geraniol and retinol or retinyl esters” (Chesebrough-Pond's USA Co., Division of Conopco, Inc., priority 1996, dated 1998).
“Also recorded” adds a separate entry of the source. Like-named read-outs stand apart in the source and are kept apart here.

Tests used:
TGase I = assay: Transglutaminase (TGase I) ELISA normalized to DNA, keratinocyte differentiation (Example 1); format: cell-based, human; conditions: […]10^-7, […]10^-8 and […]10^-9 M
Procedure: (§1) Human keratinocytes, isolated from neonatal foreskin by trypsin treatment were grown in Dulbecco Modification Eagle (DME) Hams F12 (1:1) medium/10% fetal calf serum in the presence of irradiated 3T3 mouse fibroblasts for establishing dividing keratinocyte colonies. Cells were grown under the above condition until their second passage and kept frozen for future use. Frozen second passage keratinocytes were thawed and plated into the above medium and grown for five days before they were switched to a serum-free MCDB 153-based medium keratinocyte growth medium (KGM) from Clonetics Corporation, San Diego, Calif., containing 0.15 mM Ca, or keratinocyte serum-free media (KSFM) from GIBCO containing 0.09 mM Ca). On day 7, when the cells were 80-90% confluent, they were trypsinized and plated in the serum-free medium for the various experiments.
During the process of terminal differentiation in the epidermis, a 15 nm thick layer of protein, known as the cornified envelope (CE) is formed on the inner surface of the cell periphery. The CE is composed of numerous distinct proteins which have been cross-linked together by the formation of N^E -(γ-glutamyl) lysine isodipeptide bonds catalyzed by the action of at least two different transglutaminases (TGases) expressed in the epidermis. TGase I is expressed in abundance in the differentiated layers of the epidermis, especially the granular layer, but is absent in the undifferentiated basal epidermis. […]
Keratinocytes (cultured as described above) were plated in 96 well plates at a density of 3,000 cells per well in 200 μl media. […] The absorbance of samples was read at 492 nm in the plate reader. […] TGase levels were determined by subtracting background from the readings from each treatment and determining mean±s.d. for the replicates exposed to both Ab.
The level of TGase-1 detected after treatment of the cells could be influenced by cell number, i.e., the greater the number of cells the greater the level of TGase-1 detected. […]

Human keratinocytes [1] = assay: 3H-thymidine incorporation, keratinocyte proliferation (Example 1); format: cell-based; conditions: […]10^-7, […]10^-8 and […]10^-9 M; over ethanol control and retinol treatments
Procedure: as §1
The incorporation of ^3 H-thymidine by cultured keratinocytes was used as an assay of keratinocyte proliferation. […]
Keratinocytes (that were cultured as described above) were plated in 24 well plates at a density of about 20,000 cells per well in 1 ml media. […] Disintegrations per minute (DPM) from ^3 H labelling of DNA was determined by liquid scintillation counting of 900 μl of the cell preparation. Thymidine incorporation results were expressed as DPM/μg protein.

Human keratinocytes [2] = assay: 3H-thymidine incorporation, keratinocyte proliferation (Example 3); format: cell-based; conditions: for activity at […]: Homo sapiens, Keratinocyte, 250 nM, read-out: % Control (thymidine incorporation)
Procedure: as §1
The incorporation of ^3 H-thymidine by cultured keratinocytes was used as an assay of keratinocyte proliferation. Thymidine is one of four deoxynucleosides which are the monomeric units of DNA, the universal library of genetic information in the animal kingdom. Prior to cell division of a somatic cell such as a keratinocyte, the complete genome of the cell undergoing cell division is replicated. This involves large scale DNA synthesis by the cell and enables both daughter cells to receive identical copies of the genetic material. When 3H-thymidine is included in the culture media of keratinocytes which are synthesizing DNA in preparation for cell division then the labelled nucleoside is incorporated into the newly synthesized DNA. The extent of incorporation of ^3 H-thymidine into a population of cells is proportional to the rate of DNA synthesis by this population of cells and therefore an indication of their cellular proliferation.
For Example 3, the following procedure was employed to measure thymidine incorporation:
Human keratinocytes were plated in 24-well plates at a density of 40,000 cells/well in 1 ml keratinocyte growth media. The cells were allowed to grow until they were 60-70% confluent (approx. 4 days), after which they were treated (in triplicate) with test agents in media for 4 hours. Tritiated thymidine (1 microcurie/ml) was then added, and the cells were incubated for an additional 18 hrs. The medium was removed and the cells were incubated for 30 minutes with ice cold 10% trichloroccetic acid. The cells were then washed 5× with 5% TCA and dissolved in 0.5 ml 0.1M NaOH. After neutralization with 0.1M HCl, aliquots were removed to measure protein and radioactivity by liquid scintillation counting.
^3 H-Thymidine incorporation was measured according to the procedure described in Materials and Methods section above.

retinol esterification = assay: In vitro microsomal esterification of retinol, ARAT and LRAT together (statements in words); format: biochemical, bovine; conditions: compared with farnesol
Description: (§2) Microsomes are obtained as described in: J. C.

ARAT = assay: In vitro microsomal esterification of retinol, ARAT (retinyl palmitate formation); format: biochemical, bovine; conditions: 10 micromolar retinol, 1 hour, 37° C.
Description: It is believed that the use of retinol or esters of retinol would be preferred over retinoic acid. Retinol is an endogenous compound which occurs naturally in the human body and is essential for normal epithelial cell differentiation. Retinol is also considered much safer than retinoic acid. Esters of retinol hydrolyze in-vivo to produce retinol. […] These esterification reactions are very efficient in keratinocytes--the majority (95%) of cellular retinoids are in the form of retinyl fatty esters.
as §2

Row | SMILES | decrease in transglutaminase level (in words) (TGase I) | keratinocyte differentiation (in words) (TGase I; over ethanol control and corresponding retinol treatments) | keratinocyte proliferation (in words) (Human keratinocytes [1]) | activity at […] (Human keratinocytes [2]; Experiment #1) [%] | activity at […] (Human keratinocytes [2]; Experiment #2) [%] | inhibition of retinol esterification (in words) (retinol esterification) | proliferation enhancing effect of retinol (in words) (Human keratinocytes [2]; 10 nM geranyl geraniol with 250 nM retinol, compared with retinoic acid) | % INHIB. ARAT (ARAT; 10 μM) [%] | % INHIB. ARAT (ARAT; 100 μM) [%]
1 | CC1=C(/C=C/C(C)=C/C=C/C(C)=C/C(=O)O)C(C)(C)CCC1 [RA, Retinoic Acid] | dose dependent | decreased keratinocyte differentiation | significantly increased keratinocyte proliferation | 156 | 163 | – | – | – | –
2 | CC1=C(/C=C/C(C)=C/C=C/C(C)=C/CO)C(C)(C)CCC1 [ROH, Retinol] | dose dependent | – | – | 108 | 107 | – | – | – | –
3 | CC(C)=CCC/C(C)=C/CC/C(C)=C/CC/C(C)=C/CO [Geranyl Geraniol, geranyl geraniol] | – | – | – | – | – | substantially more potent esterification inhibitor, than farnesol; also recorded: substantially more potent at inhibiting retinol esterification than other terpenes, e.g., farnesol | significantly increase the proliferation enhancing effect of retinol to a level similar to that which can be achieved with a comparable amount of retinoic acid | 38 | 81
4 | CC(C)=CCCC(C)=CCCC(C)=CCO [Farnesol, farnesol] | – | – | – | – | – | – | – | 20 | 43
